Measurements from patent US11400063B2, “Early administration of low-dose colchicine after myocardial infarction” (INSTITUT DE CARDIOLOGIE DE MONTREAL, priority 2019, dated 2022).

Test system: patients recruited within 30 days after a myocardial infarction
Test: COLCOT time-to-treatment initiation (TTI) analysis
Assay type: in vivo, human
Description: The results of the COLCOT trial have been further analyzed to determine if time to treatment initiation (TTI) had any effect on the outcome of the treatment. Three different cutoffs for TTI were used in order to determine the association between early initiation of therapy and clinical outcomes. These cutoffs were determined based on the usual journey of patients with MI. The first 30-day post-MI timeline was divided into three independent periods of time, and analyzed as such: from day 0 to 3, referring to in-hospital management; from day 4 to 7, referring to early post-discharge period and from day 8 to 30, referring to late post-discharge period.
COLCOT was an international multicenter, randomized, double-blinded trial that randomly assigned patients to receive either low-dose colchicine (0.5 mg once daily) or placebo. The study protocol and main results have been published (see, Tardif et al., N Engl J Med 2019). […] Main exclusion criteria were severe heart failure, reduced left ventricular ejection fraction (<35%), recent stroke (<3 months), type 2 MI, recent (<3 years) or planned coronary artery bypass graft (CABG), history of cancer (<3 years), and inflammatory bowel disease or chronic diarrhea. All patients enrolled in the trial benefited from percutaneous coronary intervention whenever indicated and guidelines-directed management of CV disease prior to randomization (see. Tardif et al., N Engl J Med 2019).
The primary efficacy endpoint was a composite of CV death, resuscitated cardiac arrest, MI, stroke, or urgent hospitalization for angina requiring coronary revascularization. The secondary endpoints consisted of the components of the primary efficacy endpoint, all-cause death, and a composite of CV death, resuscitated cardiac arrest, MI, or stroke. Exploratory endpoints included all coronary revascularizations, including both elective and urgent coronary revascularizations.
Three different cutoffs for TTI were used in order to determine the association between early initiation of therapy and clinical outcomes. These cutoffs were determined based on the usual journey of patients with MI. The first 30-day post-MI timeline was divided into three independent periods of time, and analyzed as such: from day 0 to 3, referring to in-hospital management; from day 4 to 7, referring to early post-discharge period and from day 8 to 30, referring to late post-discharge period.
Both the TTI of less than 4 days and the TTI of less than 5 days was were calculated using a basic model (Table 4 and Table 6) as well as an adjusted model (Table 5 and Table 7) which is described below in the statistical analysis section. In all cases, the interaction p-value was not significant (p>0.05), meaning that the conclusion over Placebo vs. Colchicine group can be obtained directly from the respective p-values for HR. In other words, relationships within the placebo and colchicine groups with TTI are both linear/parallel and the interpretation is straightforward.
For the present TTI analysis, the data were centrally analyzed by an independent academic biostatistics center at the Montreal Health Innovations Coordinating Center. The analysis was conducted amongst patients who received at least one dose of the study medication (referred to as the safety population in the main protocol, FIG. 1). TTI was defined as the length of time in days between the index MI and the initiation of the study medication, and three specific cutoffs were analyzed ([…], days 4 to […]). Early initiation of therapy was defined as TTI≤3 days. Baseline characteristics were summarized using counts and percentages for categorical variables and mean±standard deviation (SD) for continuous variables. For each baseline characteristic, comparisons were made using ANOVA for continuous variables and Chi-Square test for categorical variables according to TTI strata. […]

[1] = TTI 4-7 days, colchicine vs. placebo
[2] = TTI ≥ 8 days, colchicine vs. placebo
[3] = delay between randomization and index MI [0-4] days
[4] = delay between randomization and index MI [0-5] days
[5] = delay between randomization and index MI [5-30] days
[6] = delay between randomization and index MI [6-30] days

**Q.** Which results are given for `COc1cc2c(c(OC)c1OC)-c1ccc(OC)c(=O)cc1[C@@H](NC(C)=O)CC2` [Colchicine, colchicine]?
**A.** Secondary Composite Endpoint, HR (95% CI) [1]: 1.04 (0.53-2.03); p = 0.919; Stroke, HR (95% CI) [1]: 0.28 (0.03-2.71); p = 0.272; Urgent hospitalization for angina requiring coronary revascularization, HR (95% CI) [1]: 0.63 (0.18-2.24); p = 0.476; All Coronary Revascularizations, % of patients (TTI ≥ 8 days, N = 2748): 5.3%; All Coronary Revascularizations, no. of patients (TTI ≥ 8 days, N = 2748): 72 no.; All-cause death, % of patients (TTI ≥ 8 days, N = 2748): 1.9%; All-cause death, no. of patients (TTI ≥ 8 days, N = 2748): 26 no.; MI, % of patients (TTI ≥ 8 days, N = 2748): 3.8%; MI, no. of patients (TTI ≥ 8 days, N = 2748): 52 no.; Primary composite endpoint, % of patients (TTI ≥ 8 days, N = 2748): 5.7%; Primary composite endpoint, no. of patients (TTI ≥ 8 days, N = 2748): 77 no.; Resuscitated cardiac arrest, % of patients (TTI ≥ 8 days, N = 2748): 0.1%; Resuscitated cardiac arrest, no. of patients (TTI ≥ 8 days, N = 2748): 2 no.; Secondary Composite Endpoint, % of patients (TTI ≥ 8 days, N = 2748): 4.9%; Secondary Composite Endpoint, no. of patients (TTI ≥ 8 days, N = 2748): 67 no.; Stroke, % of patients (TTI ≥ 8 days, N = 2748): 0.1%; Stroke, no. of patients (TTI ≥ 8 days, N = 2748): 2 no.; Urgent hospitalization for angina requiring coronary revascularization, % of patients (TTI ≥ 8 days, N = 2748): 1.1%; Urgent hospitalization for angina requiring coronary revascularization, no. of patients (TTI ≥ 8 days, N = 2748): 15 no.; All Coronary Revascularizations, HR (95% CI) [2]: 0.81 (0.59-1.10); p = 0.172; All-cause death, HR (95% CI) [2]: 0.90 (0.53-1.51); p = 0.684; MI, HR (95% CI) [2]: 0.93 (0.64-1.35); p = 0.710; Primary composite endpoint, HR (95% CI) [2]: 0.82 (0.61-1.11); p = 0.200; Resuscitated cardiac arrest, HR (95% CI) [2]: 1.02 (0.14-7.22); p = 0.986; Secondary Composite Endpoint, HR (95% CI) [2]: 0.92 (0.66-1.28); p = 0.629; Stroke, HR (95% CI) [2]: 0.19 (0.04-0.84); p = 0.029; Urgent hospitalization for angina requiring coronary revascularization, HR (95% CI) [2]: 0.61 (0.32-1.16); p = 0.131; Time to first positively adjudicated primary endpoint, HR (95% CI) ([0-4] days, adjusted Cox model, colchicine vs. placebo): 0.58 (0.36; 0.89); Time to first positively adjudicated primary endpoint, HR (95% CI) ([0-4] days, adjusted Cox model, colchicine vs. placebo, listed as colchicine): 0.58; Time to first positively adjudicated primary endpoint, HR (95% CI) ([0-4] days, basic Cox model, colchicine vs. placebo): 0.57 (0.37; 0.87); Time to first positively adjudicated primary endpoint, HR (95% CI) ([0-5] days, adjusted Cox model, colchicine vs. placebo, listed as colchicine): 0.68 (0.45-1.02); Time to first positively adjudicated primary endpoint, HR (95% CI) ([0-5] days, basic Cox model, colchicine vs. placebo): 0.67 (0.45; 1.01); Time to first positively adjudicated primary endpoint, HR (95% CI) ([5-20] days, adjusted Cox model, colchicine vs. placebo): 0.84 (0.64; 1.11); Time to first positively adjudicated primary endpoint, HR (95% CI) ([5-20] days, basic Cox model, colchicine vs. placebo): 0.83 (0.63; 1.09); Time to first positively adjudicated primary endpoint, HR (95% CI) ([6-30] days, adjusted Cox model, colchicine vs. placebo): 0.35 (0.60, 1.05); Time to first positively adjudicated primary endpoint, HR (95% CI) ([6-30] days, basic Cox model, colchicine vs. placebo): 0.78 (0.59; 1.03); reduction in the risk of the composite primary endpoint (colchicine initiated between days 0 and 3, vs placebo): 48%; Positively adjudicated primary endpoint No, % of patients [3]: (95.6%); Positively adjudicated primary endpoint No, no. of patients [3]: 734 no.; Positively adjudicated primary endpoint Yes, % of patients [3]: (4.4%); Positively adjudicated primary endpoint Yes, no. of patients [3]: 34 no.; Positively adjudicated primary endpoint No, % of patients [4]: (95.3%); Positively adjudicated primary endpoint No, no. of patients [4]: 819 no.; Positively adjudicated primary endpoint Yes, % of patients [4]: (4.7%); Positively adjudicated primary endpoint Yes, no. of patients [4]: 40 no.; Positively adjudicated primary endpoint No, % of patients [5]: (94.1%); Positively adjudicated primary endpoint No, no. of patients [5]: 1463 no.; Positively adjudicated primary endpoint Yes, % of patients [5]: (5.9%); Positively adjudicated primary endpoint Yes, no. of patients [5]: 91 no.; Positively adjudicated primary endpoint No, % of patients [6]: (94.2%); Positively adjudicated primary endpoint No, no. of patients [6]: 1378 no.; Positively adjudicated primary endpoint Yes, % of patients [6]: (5.8%); Positively adjudicated primary endpoint Yes, no. of patients [6]: 85 no.; reduction of secondary efficacy endpoint (CV death, resuscitated cardiac arrest, MI or stroke) (early initiation of low-dose colchicine): 45%
